In ChEMBL document CHEMBL6153088, “Discovery of 1,4-Disubstituted Cyclohexene Analogues as Selective GPR119 Agonists for the Treatment of Type 2 Diabetes” (J Med Chem, 2025):

Columns and labels:
[1] = target: T1, Glucose-dependent insulinotropic receptor (Homo sapiens, UniProt Q8TDV5); assay: Agonist activity at human GPR119 expressed in CHO cells assessed as cAMP level measured after 90 mins by HTRF based assay; assay type: functional, cell-based
T1 sequence (Q8TDV5 whole entry): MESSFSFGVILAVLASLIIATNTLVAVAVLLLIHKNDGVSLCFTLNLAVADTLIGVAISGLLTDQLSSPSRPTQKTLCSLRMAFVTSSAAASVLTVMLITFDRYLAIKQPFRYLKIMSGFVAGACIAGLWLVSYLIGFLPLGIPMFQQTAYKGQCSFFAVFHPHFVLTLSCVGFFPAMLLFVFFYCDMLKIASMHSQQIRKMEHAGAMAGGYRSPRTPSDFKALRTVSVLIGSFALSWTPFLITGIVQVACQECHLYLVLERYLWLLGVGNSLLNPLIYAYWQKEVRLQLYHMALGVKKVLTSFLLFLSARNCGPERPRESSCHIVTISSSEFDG

Mus musculus [2] = assay: (§1) Anti-diabetic activity in overnight fasted male C57BL/6J mouse assessed as reduction in blood glucose level by measuring reduction in AUC […] at 20 mg/kg pre-administered with compound for 30 min followed by glucose bolus addition and measured upto 120 min by oral glucose tolerance test relative to control; assay type: functional; parameters: scale not given: the % may be the effect or the level left; settings: time <= 150 min, 2.5 h
Mus musculus [3] = assay: as §1, with “at 30” for “at 20”; assay type: functional; parameters: scale not given: the % may be the effect or the level left; settings: time <= 150 min, 2.5 h
Mus musculus [4] = assay: Anti-diabetic activity in overnight fasted male C57BL/6J mouse assessed as reduction in blood glucose level administered twice a day preincubated with compound for 30 min followed by glucose bolus addition and measured upto 120 min by oral glucose tolerance test; assay type: functional, organism-based; settings: dose 3-30 mg/kg, time <= 150.0 min
[5] = target: T1, Glucose-dependent insulinotropic receptor; assay: Agonist activity at human GPR119; assay type: functional
Mus musculus [6] = assay: Anti-diabetic activity in male FATZO mouse assessed as reduction in blood glucose level by measuring AUC […] at 300 mg/kg once a day pre-administered with compound for 30 min followed by glucose bolus addition and measured upto 120 min by oral glucose tolerance test relative to control; assay type: functional; parameters: scale not given: the % may be the effect or the level left; settings: time <= 150 min, 2.5 h

Compound	EC50 [1] [nM]	Activity (Mus musculus [2]) [%]	other results
CC(C)(C)OC(=O)N1CCC(COc2ccc(C3=CCC(C(=O)N4CCOCC4)CC3)cc2)CC1 (configuration not stated)	13	10.2	–
CC(C)c1noc(N2CCC(COc3ccc(C4=CCC(C(=O)N5CCOCC5)CC4)cc3)CC2)n1 (configuration not stated)	18	4.1	–
CCc1cnc(N2CCC(COc3ccc(C4=CCC(C(=O)N5CCCC5)CC4)cc3)CC2)nc1 (configuration not stated)	27	15.9	–
CCc1cnc(N2CCC(COc3ccc(C4=CC[C@@H](C(=O)N5CCC[C@@H]5CO)CC4)cc3)CC2)nc1	32	–	–
CCc1cnc(N2CCC(COc3ccc(C4=CCC(C(=O)N5CCC[C@@H]5CO)CC4)cc3)CC2)nc1 (some centres not stated)	6.8	16.6	Activity (Mus musculus [3]): 25.8%; Activity (Mus musculus [4]): Dose-dependent-effect
CCc1cnc(N2CCC(COc3ccc(C4=CCC(C(=O)N5CC[C@@H](O)C5)CC4)cc3)CC2)nc1 (some centres not stated)	13	13.5	–
CCc1cnc(N2CCC(COc3ccc(C4=CCC(C(=O)N5CCC(F)(F)C5)CC4)cc3)CC2)nc1 (configuration not stated)	10	12.6	–
CCc1cnc(N2CCC(COc3ccc(C4=CCC(C(=O)N5CCOCC5)CC4)cc3)CC2)nc1 (configuration not stated)	13	15.7	–
CCOC(=O)c1ccc(-c2ccc(OCC3CCN(C(=O)OC(C)(C)C)CC3)cc2)cc1	–	–	EC50 [5]: 120 nM
CCc1cnc(N2CCC(COc3ccc(C4=CCC(C(=O)N5CCC5)CC4)cc3)CC2)nc1 (configuration not stated)	38	14.6	–
CCc1cnc(N2CCC(COc3ccc(C4=CCC(C(=O)N5CCC[C@H]5CO)CC4)cc3)CC2)nc1 (some centres not stated)	31	9.8	–
CN(C)C(=N)NC(=N)N [METFORMIN]	–	–	Activity (Mus musculus [6]): 25%
CCc1cnc(N2CCC(COc3ccc(C4=CCC(C(=O)N5CCC(=O)C5)CC4)cc3)CC2)nc1 (configuration not stated)	12	12.7	–
CN(CCO)C(=O)C1CC=C(c2ccc(OCC3CCN(C(=O)OC(C)(C)C)CC3)cc2)CC1 (configuration not stated)	14	6.8	–
